From US20100028447A1, “Intranasal, Buccal, And Sublingual Administration Of Metanicotine Analogs” (TARGACEPT, INC., priority 2007, published 2010) come the findings set out here.

Each structure is given as a SMILES string. Entries after “also recorded” stand apart in the source; their conditions may differ.

As a reminder, the Papp is a coefficient for how fast a substance crosses the barrier.

One data set can be described thus: in vitro. The following applies: human, pH 7.4, Papp. From the text: (§1) An in vitro model of MatTek EpiAir® tissue was used for the permeability assessment of the test articles and control compounds. The EpiAir® culture consists of cells that have been cultured to form a pseudo-stratified, highly differentiated model closely resembling the epithelial tissue of the human respiratory tract. The histological cross-sections of the cultured tissue reveal a pseudo-stratified mucociliary phenotype.
(§2) EpiAir® tissues plated in 12 well plates were pre-equilibrated for the assay by culturing them for 24 hours at 37° C. with 5% CO2 in a humidified incubator. On the day of the assay, the cultures were washed two times with Dulbeccos' Phosphate Buffered Saline (DPBS buffer) at pH 7.4, and then dosed with donor and receiver buffer applied to the apical and basolateral surfaces of the culture, respectively. The receiver buffer consisted of DPBS, at pH 7.4. The donor solution consisted of DPBS buffer containing the appropriate compounds as specified in Table 1. All treatments were performed in triplicate. The receiver buffer was sampled at 15, 30, 60, and 120 minutes, and the donor buffer was sampled at 120 minutes.
(§3) The Lucifer Yellow concentration in the receiver samples was measured using a FluoStar fluorescence plate reader (BMG Laboratories, Durham, N.C.).
(§4) The apparent permeability coefficient, Papp, was calculated as follows: […]
(§5) where: dCr/dt is the slope of the cumulative concentration in the receiver compartment versus time; Vr is the volume of the receiver compartment; A is the surface area of epithelium available for permeation; and Co is the dosing solution concentration.

Data set [1] relates to cultured human respiratory epithelium. Description: Permeation across cultured human respiratory epithelium (EpiAir tissue), apical-to-basolateral Papp. The following applies: p<0.05, two-tailed t-test, N=3.
Description: as §1, §2, §3, §4, §5

Consider `CN[C@@H](C)C/C=C/c1cncc(OC)c1` [Compound A, (2S)-(4E)-N-methyl-5-(3-(5-methoxypyridin)yl)-4-penten-2-amine], for which the apparent permeability (Papp) at 120 min in “in vitro” is 25.1 ×10⁻⁶ cm/s.
As for `CNCC/C=C/c1cccnc1` [Compound B, N-methyl-(4-pyridin-3-yl-but-3-enyl)-amine], the apparent permeability coefficient (Papp) at 120 min in “in vitro” (Treatment 1: Compound B assayed with controls, Average ± STD) was 18.3 ± 0.28 ×10⁻⁶ cm/s; in the data set “in vitro” (Treatment 1: Compound B assayed with controls, Rep 1), 18.5 ×10⁻⁶ cm/s; in the data set “in vitro” (Treatment 1: Compound B assayed with controls, Rep 2), 18 ×10⁻⁶ cm/s; in “in vitro” (Treatment 1: Compound B assayed with controls, Rep 3) it was 18.4 ×10⁻⁶ cm/s; in “in vitro” (Treatment 2: Compound B assayed with controls + MAO inhibitor Pargyline, Average ± STD), 25.4 ± 0.41 ×10⁻⁶ cm/s; in the data set “in vitro” (Treatment 2: Compound B assayed with controls + MAO inhibitor Pargyline, Rep 1) it was 25.1 ×10⁻⁶ cm/s. Moreover, the Papp at 120 min in “in vitro” (Treatment 2: Compound B assayed with controls + MAO inhibitor Pargyline, Rep 2) was determined as 25.9 ×10⁻⁶ cm/s; in the data set “in vitro” (Treatment 2: Compound B assayed with controls + MAO inhibitor Pargyline, Rep 3) it was 25.2 ×10⁻⁶ cm/s. The “Permeation (Papp) in the presence of the MAO inhibitor Pargyline compared to alone” value in data set [1] is given as “significantly lower Papp value in the absence, than in the presence; also recorded: significant increased”.
